From patent US9656971B2, “COMT inhibitors” (Hoffmann-La Roche Inc., priority 2012, dated 2017)
Where two headings read alike, the source gives them in different places.

Target: T1, Rec. human COMT (Homo sapiens, UniProt P21964)
T1 sequence (P21964 1-271): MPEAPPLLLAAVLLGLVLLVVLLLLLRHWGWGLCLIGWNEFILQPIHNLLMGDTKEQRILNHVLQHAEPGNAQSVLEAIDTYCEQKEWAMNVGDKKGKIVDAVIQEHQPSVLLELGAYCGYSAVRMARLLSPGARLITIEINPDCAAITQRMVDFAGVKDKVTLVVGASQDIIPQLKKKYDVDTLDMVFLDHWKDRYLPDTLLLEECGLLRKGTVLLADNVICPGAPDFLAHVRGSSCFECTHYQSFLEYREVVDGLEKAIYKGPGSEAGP
Assay: COMT-Fluorescence Assay
Format: biochemical
Conditions: rec. human COMT 25 nM, 4-Nitrocatechol-Alexa488 200 nM, SAM 500 nM
Description: This intramolecular interaction is disturbed if the 4-Nitrocatechol is methylated. […] This increase of fluorescence intensity can be followed in a kinetic measurement. The slope in the linear range of the kinetic is calculated. An inhibitor compound decreases the slope.
Signal [rfu/min]=(rfu(end-point)−rfu(startpoint))/incubation_time_#2

[1] = COMT-fluorescence assay, read-out: IC50

| SMILES | IC50 [1] [nM] | IC50 (IC50, COMT-fluorescence assay) [nM] |
| --- | --- | --- |
| COCc1c(C(=O)N2CCN(C)CC2)cccc1-c1cc(O)c2nc[nH]c(=O)c2c1 [Example 235, 8-Hydroxy-6-[2-methoxymethyl-3-(4-methyl-piperazine-1-carbonyl)-phenyl]-3H-quinazolin-4-one] | 30 | – |
| O=c1[nH]cnc2c(O)cc(-c3ccc(F)cc3)c(Br)c12 [Example 122, 5-Bromo-6-(4-fluorophenyl)-8-hydroxyquinazolin-4(3H)-one] | 10 | – |
| N#Cc1ccc(-c2c(-c3ccc(F)cc3)cc(O)c3nc[nH]c(=O)c23)cc1 [Example 64, 4-[6-(4-Fluoro-phenyl)-8-hydroxy-4-oxo-3,4-dihydro-quinazolin-5-yl]-benzonitrile] | 10 | – |
| CSCc1ccccc1-c1cc(O)c2nc[nH]c(=O)c2c1 [Example 114] | 40 | – |
| O=c1[nH]cnc2c(O)ccc(C(F)(F)F)c12 [Example 42, 8-Hydroxy-5-(trifluoromethyl)quinazolin-4(3H)-one] | 1030 | – |
| CN(C)CCc1ccccc1-c1cc(O)c2nc[nH]c(=O)c2c1 [Example 234, 6-(2-(2-(Dimethylamino)ethyl)phenyl)-8-hydroxyquinazolin-4(3H)-one] | 980 | – |
| O=C(NCC(F)(F)C(F)(F)F)c1cc(O)c2nc[nH]c(=O)c2c1 [Example 4, 8-Hydroxy-4-oxo-N-(2,2,3,3,3-pentafluoropropyl)-3,4-dihydroquinazoline-6-carboxamide] | 170 | – |
| Cc1noc(C)c1-c1cc(O)c2nc[nH]c(=O)c2c1 [Example 78, 6-(3,5-Dimethylisoxazol-4-yl)-8-hydroxyquinazolin-4(3H)-one] | 320 | – |
| Cc1ccc(F)cc1-c1cc(O)c2nc[nH]c(=O)c2c1 [Example 213, 6-(5-Fluoro-2-methylphenyl)-8-hydroxyquinazolin-4(3H)-one] | – | 30 |
| Cc1n[nH]cc1-c1cc(O)c2nc[nH]c(=O)c2c1 [Example 205, 8-Hydroxy-6-(3-methyl-1H-pyrazol-4-yl)quinazolin-4(3H)-one] | 170 | – |
| O=c1[nH]cnc2c(O)cc(-c3ccc4c(c3)OCO4)cc12 [Example 177, 6-(Benzo[d][1,3]dioxol-5-yl)-8-hydroxyquinazolin-4(3H)-one] | 40 | – |
| CN1CCN(S(=O)(=O)c2cccc(-c3cc(O)c4nc[nH]c(=O)c4c3)c2)CC1 [Example 111, 8-Hydroxy-6-[3-(4-methyl-piperazine-1-sulfonyl)-phenyl]-3#H!-quinazolin-4-one; compound with trifluoro-acetic acid] | 20 | – |
| Cc1c(-c2cc(O)c3nc[nH]c(=O)c3c2)c(C(F)(F)F)nn1C [Example 95, 6-(1,5-Dimethyl-3-(trifluoromethyl)-1H-pyrazol-4-yl)-8-hydroxyquinazolin-4(3H)-one] | 970 | – |
| O=c1[nH]cnc2c(O)cc(-c3ccccc3C(F)(F)F)cc12 [Example 221, 8-Hydroxy-6-(2-(trifluoromethyl)phenyl)quinazolin-4(3H)-one] | 30 | – |
| COc1ccccc1Cc1cc(O)c2nc[nH]c(=O)c2c1 [Example 14, 8-Hydroxy-6-(2-methoxybenzyl)quinazolin-4(3H)-one] | 4900 | – |
| COc1ccc(C(C)(C)C)cc1-c1cc(O)c2nc[nH]c(=O)c2c1 [Example 35, 6-(5-tert-Butyl-2-methoxyphenyl)-8-hydroxyquinazolin-4(3H)-one] | 1300 | – |
| O=c1[nH]cnc2c(O)cc(-c3ccc(F)cc3)c(-c3ccc(F)cc3)c12 [Example 102, 5,6-Bis(4-fluorophenyl)-8-hydroxyquinazolin-4(3H)-one] | 1 | – |
| COCc1nc(NC(=O)C(C)(C)C)ccc1-c1cc(O)c2nc[nH]c(=O)c2c1 [Example 104, N-(5-(8-Hydroxy-4-oxo-3,4-dihydroquinazolin-6-yl)-6-(methoxymethyl)pyridin-2-yl)pivalamide] | 10 | – |
| Cc1c(-c2cc(O)c3nc[nH]c(=O)c3c2)cnn1-c1ccccc1 [Example 204, 8-Hydroxy-6-(5-methyl-1-phenyl-1H-pyrazol-4-yl)quinazolin-4(3H)-one] | 20 | – |
| O=c1[nH]cnc2c(O)cc(C3CCOCC3)cc12 [Example 69, 8-Hydroxy-6-(tetrahydro-2H-pyran-4-yl)quinazolin-4(3H)-one 2,2,2-trifluoroacetate] | 1040 | – |
| O=c1[nH]cnc2c(O)cc(-c3ccc(S(F)(F)(F)(F)F)cc3)cc12 [Example 100, 6-(4-Pentafluorosulfanylphenyl)-8-hydroxyquinazolin-4(3H)-one] | 50 | – |
| CN(C)S(=O)(=O)n1cnc(-c2cc(O)c3nc[nH]c(=O)c3c2)c1 [Example 77, 4-(8-Hydroxy-4-oxo-3,4-dihydroquinazolin-6-yl)-N,N-dimethyl-1H-imidazole-1-sulfonamide] | 50 | – |
| CCc1ccccc1-c1cc(O)c2nc[nH]c(=O)c2c1 [Example 217, 6-(2-Ethylphenyl)-8-hydroxyquinazolin-4(3H)-one] | 50 | – |

| SMILES | IC50 [1] [nM] | IC50 (IC50, COMT-fluorescence assay) [nM] |
| --- | --- | --- |
| O=c1[nH]cnc2c(O)cc(-c3ccccc3COCCN3CCCC3)cc12 [Example 239, 8-Hydroxy-6-[2-(2-pyrrolidin-1-yl-ethoxymethyl)-phenyl]-3H-quinazolin-4-one; compound with trifluoro-acetic acid] | 50 | – |
| CN(C)c1ccccc1-c1cc(O)c2nc[nH]c(=O)c2c1 [Example 209, 6-(2-(Dimethylamino)phenyl)-8-hydroxyquinazolin-4(3H)-one] | 370 | – |
| Cc1ccccc1-c1cc(O)c2nc[nH]c(=O)c2c1 [Example 210, 8-Hydroxy-6-o-tolylquinazolin-4(3H)-one] | 30 | – |
| COc1ccccc1-c1cc(O)c2nc[nH]c(=O)c2c1 [Example 161, 8-Hydroxy-6-(2-methoxyphenyl)quinazolin-4(3H)-one] | 50 | – |
| O=C(c1ccccc1-c1cc(O)c2nc[nH]c(=O)c2c1)N1CCS(=O)(=O)CC1 [Example 194, 6-[2-(1,1-Dioxo-1λ^6-thiomorpholine-4-carbonyl)-phenyl]-8-hydroxy-3H-quinazolin-4-one] | 730 | – |
| CS(=O)(=O)c1cccc(-c2c(-c3ccc(F)cc3)cc(O)c3nc[nH]c(=O)c23)c1 [Example 52, 6-(4-Fluorophenyl)-8-hydroxy-5-(3-(methylsulfonyl)phenyl)quinazolin-4(3H)-one] | 10 | – |
| O=c1[nH]cnc2c(O)cc(CCCc3ccccc3)cc12 [Example 22] | 200 | – |
| Cn1cnc(-c2cc(O)c3nc[nH]c(=O)c3c2)c1 [Example 75, 8-Hydroxy-6-(1-methyl-1H-imidazol-4-yl)quinazolin-4(3H)-one] | 510 | – |
| O=c1[nH]cnc2c(O)cc(-c3ccc(F)cc3)c(C(F)(F)F)c12 [Example 43, 6-(4-Fluorophenyl)-8-hydroxy-5-(trifluoromethyl)quinazolin-4(3H)-one] | 40 | – |
| O=c1[nH]cnc2c(O)cc(-c3ccccc3Cc3ccccc3)cc12 [Example 98, 6-(2-Benzylphenyl)-8-hydroxyquinazolin-4(3H)-one] | 40 | – |
| COCCn1cc(-c2cc(O)c3nc[nH]c(=O)c3c2)cn1 [Example 47, 8-Hydroxy-6-(1-(2-methoxyethyl)-1H-pyrazol-4-yl)quinazolin-4(3H)-one] | 60 | – |
| O=c1[nH]cnc2c(O)cc(-c3ccc4c(c3)CCNC4)cc12 [Example 171, 8-Hydroxy-6-(1,2,3,4-tetrahydroisoquinolin-6-yl)quinazolin-4(3H)-one] | 80 | – |
| O=C(c1cccnc1)c1cc(O)c2nc[nH]c(=O)c2c1 [Example 74, 8-Hydroxy-6-nicotinoylquinazolin-4(3H)-one] | 250 | – |
| O=c1[nH]cnc2c(O)cc(-c3cnn(-c4ccc(F)cc4)c3)cc12 [Example 152, 6-[1-(4-Fluoro-phenyl)-1H-pyrazol-4-yl]-8-hydroxy-3H-quinazolin-4-one] | 70 | – |
| O=c1[nH]cnc2c(O)cc(-c3cccnc3OCC(F)(F)F)cc12 [Example 216, 8-Hydroxy-6-(2-(2,2,2-trifluoroethoxy)pyridin-3-yl)quinazolin-4(3H)-one] | 40 | – |
| CCOc1ccccc1-c1cc(O)c2nc[nH]c(=O)c2c1 [Example 225, 6-(2-Ethoxyphenyl)-8-hydroxyquinazolin-4(3H)-one] | 60 | – |
| O=c1[nH]cnc2c(O)cc(-c3ccc(F)cc3)c(Cl)c12 [Example 101, 5-Chloro-6-(4-fluorophenyl)-8-hydroxyquinazolin-4(3H)-one] | 10 | – |
| CN(C)CCCc1ccccc1-c1cc(O)c2nc[nH]c(=O)c2c1 [Example 243, 6-(2-(3-(Dimethylamino)propyl)phenyl)-8-hydroxyquinazolin-4(3H)-one] | 130 | – |
| O=c1[nH]cnc2c(O)cc(C3CCc4ccccc4C3)cc12 (racemic) [Example 8, (rac.) 8-Hydroxy-6-(1,2,3,4-tetrahydronaphthalen-2-yl)quinazolin-4(3H)-one] | 100 | – |
| O=c1[nH]cnc2c(O)cc(-c3cnsc3)cc12 [Example 92, 8-Hydroxy-6-(isothiazol-4-yl)quinazolin-4(3H)-one] | 60 | – |
| O=c1[nH]cnc2c(O)cc(/C=C/c3ccccc3)cc12 [Example 20, (E)-8-Hydroxy-6-styrylquinazolin-4(3H)-one] | 90 | – |
| Cn1cc(-c2cc(O)c3nc[nH]c(=O)c3c2)c(C(F)(F)F)n1 [Example 82, 8-Hydroxy-6-(1-methyl-3-(trifluoromethyl)-1H-pyrazol-4-yl)quinazolin-4(3H)-one] | 40 | – |
| COC(=O)c1nn(C)cc1-c1cc(O)c2nc[nH]c(=O)c2c1 [Example 88, Methyl 4-(8-hydroxy-4-oxo-3,4-dihydroquinazolin-6-yl)-1-methyl-1H-pyrazole-3-carboxylate] | 120 | – |
